{
  "source": "patent US7875625B2",
  "about": "“Cyclohepta[b]pyridine-3-carbonylguanidine derivative and pharmaceutical product containing same” (Toa Eiyo Ltd., priority 2005, dated 2011)",
  "key": {"Na^+/H^+ exchanger (NHE)": {"biological_target": "T1, Na^+/H^+ exchanger (NHE) (Rattus norvegicus, UniProt P26431)", "T1 construct": "from tissue; host or cells: platelet-rich plasma from Wistar rat blood", "T1 sequence (P26431 whole entry)": "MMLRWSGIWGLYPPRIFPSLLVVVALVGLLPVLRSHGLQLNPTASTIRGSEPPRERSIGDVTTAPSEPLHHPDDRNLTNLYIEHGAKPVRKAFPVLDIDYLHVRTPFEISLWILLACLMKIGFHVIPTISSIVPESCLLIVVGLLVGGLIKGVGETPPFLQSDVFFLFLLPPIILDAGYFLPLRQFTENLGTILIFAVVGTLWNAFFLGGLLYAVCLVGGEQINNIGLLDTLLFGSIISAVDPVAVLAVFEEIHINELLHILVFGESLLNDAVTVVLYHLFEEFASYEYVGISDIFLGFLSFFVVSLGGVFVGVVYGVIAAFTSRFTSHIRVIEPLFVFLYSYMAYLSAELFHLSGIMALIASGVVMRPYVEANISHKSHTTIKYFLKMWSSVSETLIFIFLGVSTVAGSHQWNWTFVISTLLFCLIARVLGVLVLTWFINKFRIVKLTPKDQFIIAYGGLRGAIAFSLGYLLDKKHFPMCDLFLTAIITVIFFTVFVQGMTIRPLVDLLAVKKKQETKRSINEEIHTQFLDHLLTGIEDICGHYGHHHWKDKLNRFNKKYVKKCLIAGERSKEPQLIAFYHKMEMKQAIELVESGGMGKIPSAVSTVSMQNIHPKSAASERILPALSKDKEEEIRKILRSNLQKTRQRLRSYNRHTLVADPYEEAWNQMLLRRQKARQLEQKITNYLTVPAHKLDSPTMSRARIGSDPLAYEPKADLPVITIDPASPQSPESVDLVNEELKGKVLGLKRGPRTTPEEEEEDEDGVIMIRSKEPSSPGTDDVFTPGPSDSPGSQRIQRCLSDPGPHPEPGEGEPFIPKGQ", "assay": "NHE inhibitory effect test (swelling of rat platelets induced by sodium propionate)", "assay_type": "cell-based", "conditions": "rat platelet-rich plasma, sodium propionate buffer pH 6.7; 300 μM Amiloride taken as 100% inhibition; Probit method", "method": "The NHE inhibitory activity was measured according to the method by Scholz et al. [British Journal of Pharmacology, Vol. 109, p. 562-568 (1993)], taking the swelling of rat platelets induced by sodium propionate as an index.\nUnder etherization, blood was collected (8 mL) from the abdominal aorta of a Wistar rat, and 1 mL of a citrate dextrose solution as an anticoagulant was added. The blood sample was immediately centrifuged at 90×g for 10 minutes, and then the collected supernatant was taken as platelet-rich plasma. Subsequently, to 250 μL of a 140 mM sodium propionate buffer solution containing the test compound dissolved in dimethylsulfoxide (pH 6.7, final dimethylsulfoxide concentration 1%), the platelet-rich plasma prepared in the above (number of platelet; 10×10^6/50 μL) was added, and the decrease in the absorbance associated with the swelling of platelets was measured over time with a Hematracer (NKK Corp.).\nThe rate of decrease in the absorbance at 20 seconds after the addition of the platelet-rich plasma was taken as the NHE activity, and the inhibitory activity of the respective compounds was expressed as a relative activity, while the action obtained upon addition of 300 μM of Amiloride was taken as 100% inhibition.\nIn addition, the test results were obtained by calculating the concentration at which the inhibitory activity of the test compound becomes 50% (IC50 value), by a Probit method."}, "[1]": {"system": "reperfusion-induced arrhythmia upon myocardial ischemia", "assay": "Reperfusion-induced arrhythmia inhibitory action test", "assay_type": "in vivo, rat", "conditions": "male SD rats, 3.62 mmol/L, 1 mL/kg intravenous, within 10 minutes after reperfusion", "method": "Subsequently, in evaluation of the in vivo NHE inhibitory action, the effect of the test compound on reperfusion-induced arrhythmia upon myocardial ischemia was evaluated according to the method of Aihara et al. [European Journal of Pharmacology, Vol. 404, p. 221-229 (2000)]. Under anesthesia using pentobarbital sodium (60 mg/kg, intraperitoneal administration), cannulae were inserted into trachea, femoral vein and carotid artery of male SD rats ([…]) for artificial ventilation, drug administration and blood pressure measurement, respectively. The blood pressure was measured using a strain pressure amplifier via a pressure transducer, while the heart rate was measured from the blood pressure pulse wave using a cardiotachometer. Furthermore, an electrocardiogram (lead II) was measured from the electrodes attached to each four limbs. Next, under artificial ventilation, left thoracotomy was performed and a snare (5-0 nylon) was loosely placed around a blood vessel which was about 3 mm apart from the origin of the left coronary artery. Thereafter, it was confirmed that arrhythmia was not occurred for 10 minutes, and then the snare was fastened to induce local myocardial ischemia. Furthermore, after 4 minutes of myocardial ischemia, the compound was intravenously administered for 1 minute, and after 5 minutes of myocardial ischemia, the snare was loosened, then the arrhythmia occurred after reperfusion was recorded and analyzed with an arrhythmia analyzer (Softron Co., Ltd.), thereby the anti-arrhythmic action of the compound was evaluated. […] The control group was administered with physiological saline.\nWith regard to the ventricular fibrillation (Vf) which occurred within 10 minutes after reperfusion (in the cases of halfway death, up to the time point where cardiac arrest was confirmed), arrhythmia analysis was performed according to the Guidelines for Lambeth Convention [Cardiovascular research, Vol. 22, p. 447-455, 1988], and evaluation was made in terms of the frequency of Vf occurrence, cumulative duration time of Vf, and the mortality.\nThe frequency of Vf occurrence, cumulative duration of Vf, and the mortality for the respective test compounds are presented in Table 2."}, "[2]": {"assay": "Metabolic stability test in rat (generation of control compound in plasma)", "assay_type": "in vivo", "conditions": "male SD rats", "text": "The compound represented by Formula (1) of the present invention has a structure in which the hydroxyl group on the 9-position of a 9-hydroxymethyl-cyclohepta[b]pyridine-3-carbonylguanidine derivative is converted to a specific substituent. However, if the compound is metabolized in vivo to remove the specific substituent from the compound, there may be generated the original 9-hydroxymethyl-cyclohepta[b]pyridine-3-carbonylguanidine derivative, which has toxic effects on the central nervous system. Thus, the inventive compounds as synthesized in Examples were administered in vivo to study whether the control compound, which was the corresponding 9-hydroxymethyl product, was generated.\nMale SD rats (7 weeks old) were administered at 1 mg/kg (an amount calculated excluding salts) of the control compound, an equivalent amount of the Inventive Compound 2, 4, 6, 7 or 12, or Reference Compound 20, through the tail vein. After administration, about 0.2 mL of blood samples were collected after 5, 15, 30, 60 and 120 minutes, and the blood samples were centrifuged at 4° C. at a speed of rotation of 15000 for 15 minutes, thus to separate the supernatant plasma. The concentration of the control compound in the plasma was measured by LC/MS/MS. The measurement results were shown as +++ when the detected plasma concentration of the control compound is 200 ng/mL or greater; ++ for more than 100 ng/mL and less than 200 ng/mL; + for more than 20 ng/mL and less than 100 ng/mL; and − for less than 20 ng/mL or no detection."}, "male mice": {"system": "male mice", "assay": "Toxicity test with 2-days repeated intraperitoneal administration in mouse", "assay_type": "in vivo", "conditions": "equivalent of 300 mg/kg control compound intraperitoneally once a day for 2 days", "method": "For three male mice in each group, 300 mg/kg of the Control Compound (an amount calculated excluding salts), or an equivalent amount of the Inventive Compound 2, 4, 6, 7 or 12 were intraperitoneally administered once a day for 2 days, and a histopathological tests were performed. The Control Compound, and the Inventive Compounds 2, 4 and 6 were suspended in a 0.5% tragacanth gum solution, and the Inventive Compound 7 was suspended in a 10 DMSO-containing 0.5% tragacanth gum solution, while the Inventive Compound 12 was suspended in olive oil. For the histopathological test, in order to make a more thorough examination of central nervous toxicity, the brain was examined after whole body was subjected to perfusion fixation with a 4% formaldehyde in neutral phosphate buffer as a fixing solution using a liquid transporting pump under pentobarbital sodium anesthesia."}, "Beagle dogs": {"system": "Beagle dogs", "assay": "Toxicity test after 4-days repeated intravenous administration in beagle dogs", "assay_type": "in vivo, dog", "conditions": "equivalent of 30 mg/kg control compound intravenously once a day for 4 days", "method": "With one male and one female dogs in each group, 30 mg/kg of the Control Compound dissolved in physiological saline (an amount calculated excluding salts), or an equivalent amount of the Inventive Compound 2, 4, 6 or 8 was repeatedly administered intravenously once a day for 4 days, and general symptom observation and pharmacological histopathologic examination were performed."}, "[3]": {"assay": "Comparative test for transferability to the brain in rat", "assay_type": "in vivo", "conditions": "male SD rats, 50 mg/kg via tail vein", "method": "To male SD rats (6 weeks old), the Control Compound or the Inventive Compound 2 was administered through the tail vein in an amount of 50 mg/kg. After administration, whole blood samples were collected over time from the abdominal aorta under etherization, and the brain tissues were extracted immediately. The brain tissues were lightly washed off to remove the blood attached around with physiological saline, and subsequently the tissues were frozen in liquid nitrogen and preserved at −30° C. until analyzed. The blood was centrifuged at 4° C. at a rotation speed of 15000 for 15 minutes to separate the supernatant plasma, and was preserved at −30° C. until analyzed. The brain tissues were thawed by standing at ambient temperature, and then the wet weight was measured. Distilled water was added in an amount five times of the wet weight, and a suspension was prepared using a Polytron homogenizer. The measurement of the test compound concentration in the plasma and the brain tissues was performed by LC/MS/MS. The transferability of the drug to the brain was calculated by dividing the drug concentration in the brain tissues by the plasma concentration obtained at the same time."}},
  "data": [
    {"smiles": "Cc1nc2c(cc1C(=O)NC(=N)N)CCCCC2COS(=O)(=O)[O-].[Na+]", "note": "(stereo not drawn) [Inventive Compound 2, 3-Guanidinocarbonyl-2-methyl-6,7,8,9-tetrahydro-5H-cyclohepta[b]pyridin-9-ylmethyl sulfate sodium salt]", "values": [
      {"measurement": "IC50", "setting": "Na^+/H^+ exchanger (NHE)", "value": 143, "unit": "nM"},
      {"measurement": "Cumulative duration of Vf", "setting": "[1]", "value": 13.7, "unit": "s"},
      {"measurement": "Frequency of Vf occurrence", "setting": "[1]", "value": 40, "unit": "%"},
      {"measurement": "Mortality", "setting": "[1]", "value": 20, "unit": "%"},
      {"measurement": "Plasma concentration of the control compound, after 5 min", "setting": "[2]; equivalent of 1 mg/kg control compound via tail vein, LC/MS/MS, 5 min", "value": "− (− for less than 20 ng/mL or no detection)"},
      {"measurement": "Plasma concentration of the control compound, after 15 min", "setting": "[2]; equivalent of 1 mg/kg control compound via tail vein, LC/MS/MS, 15 min", "value": "− (− for less than 20 ng/mL or no detection)"},
      {"measurement": "Plasma concentration of the control compound, after 30 min", "setting": "[2]; equivalent of 1 mg/kg control compound via tail vein, LC/MS/MS, 30 min", "value": "− (− for less than 20 ng/mL or no detection)"},
      {"measurement": "Plasma concentration of the control compound, after 60 min", "setting": "[2]; equivalent of 1 mg/kg control compound via tail vein, LC/MS/MS, 60 min", "value": "− (− for less than 20 ng/mL or no detection)"},
      {"measurement": "Plasma concentration of the control compound, after 120 min", "setting": "[2]; equivalent of 1 mg/kg control compound via tail vein, LC/MS/MS, 120 min", "value": "− (− for less than 20 ng/mL or no detection)"},
      {"measurement": "Decomposition into the Control Compound in vivo (in words)", "setting": "[2]; tail vein, plasma 5-120 min", "value": "not detected at any time point"},
      {"measurement": "Histopathological finding in the brain", "setting": "male mice", "value": "any histologic finding which could be caused by drug administration was not recognized"},
      {"measurement": "General condition (symptom observation)", "setting": "Beagle dogs", "value": "only vomiting was recognized"},
      {"measurement": "Pathologic examination of the brain", "setting": "Beagle dogs", "value": "any histologic finding which could be caused by drug administration was not recognized"},
      {"measurement": "Transferability to the brain tissues (in words)", "setting": "[3]; compared with the Control Compound", "value": "decreased transferability to the brain tissues"},
      {"measurement": "Kp at 15 min", "setting": "[3]; rat, brain/plasma, intravenous, 15 min, read-out: Concentration Intracerebral/Plasma, after 15 min", "value": 0.29}
    ]}
  ]
}
